Here are results for 39 compounds from US20250092056A1, “URACIL DERIVATIVES HAVING VIRUS REPLICATION INHIBITORY ACTIVITY AND PHARMACEUTICAL COMPOSITION COMPRISING THE SAME” (Shionogi & Co., Ltd., priority 2022, published 2025).

Molecules are shown by their SMILES.

The test system of one assay is SARS-CoV-2. Put plainly: Cytopathic effect (CPE) suppression effect confirmation test using HEK293T/ACE2-TMPRSS2 cells. The format is cell-based. As to conditions: Severe acute respiratory syndrome coronavirus 2, HEK-293T; 50% SARS-CoV-2 infected cell death inhibitory concentration; HEK293T/ACE2-TMPRSS2 cells; read-out: EC50.
Assay [1] has as its target Recombinant SARS-CoV-2 3CL Protease (Severe acute respiratory syndrome coronavirus 2 (2019-nCoV) (SARS-CoV-2), UniProt P0DTD1). Put plainly: biochemical. The format is biochemical. The settings on record: 50% SARS-CoV-2 3CL protease inhibitory concentration; read-out: IC50.

`COC1CN(c2c(-c3ccc(F)c(Cl)c3)c(=O)n(-c3cncc(C(F)F)n3)c(=O)n2CC#N)C1` [Compound I-396]: the EC50 in the assay on SARS-CoV-2 was below 100 nM. Moreover, the IC50 in assay [1] was below 10 nM.
In the same order, the values of `N#CCn1c(N2CCC(C(F)F)CC2)c(-c2ccc(F)c(F)c2)c(=O)n(-c2cncc(Cl)c2)c1=O` [Compound I-397] are below 100 nM and below 10 nM.
On the same counts, the results for `N#CCn1c(N2CCC(C(F)F)CC2)c(-c2ccc(F)c(C#N)c2)c(=O)n(-c2cncc(Cl)c2)c1=O` [Compound I-398] are below 100 nM and below 10 nM.
On the same counts, the results for `N#CCn1c(N2CC[C@@](O)(C(F)F)C2)c(-c2ccc(F)c(Cl)c2)c(=O)n(-c2cncc(C#N)c2)c1=O` [Compound I-399] are below 100 nM and below 10 nM.
`N#CCn1c(N2CC[C@](O)(C(F)F)C2)c(-c2ccc(F)c(Cl)c2)c(=O)n(-c2cncc(C#N)c2)c1=O` [Compound I-400]: the EC50 in the assay on SARS-CoV-2 is below 100 nM. Further, the IC50 in assay [1] was below 10 nM.
In the same order, the values of `N#CCn1c(N2CCC(F)(F)CC2)c(-c2ccc(F)c(F)c2)c(=O)n(-c2cncc(Cl)c2)c1=O` [Compound I-401] are below 100 nM and below 10 nM.
In the same order, the values of `N#CCn1c(N2CCC(C(F)(F)F)CC2)c(-c2ccc(F)c(C#N)c2)c(=O)n(-c2cncc(Cl)c2)c1=O` [Compound I-402] are below 100 nM and below 10 nM.
In the case of `N#CCn1c(N2CCC(F)(F)CC2)c(-c2ccc(F)c(Cl)c2)c(=O)n(-c2cncc(C#N)c2)c1=O` [Compound I-403], the concentration giving a half-maximal response (EC50) with SARS-CoV-2 was below 100 nM. Further, the IC50 in assay [1] was below 10 nM.
On the same counts, the results for `N#CCn1c(N2CCC(C(F)F)CC2)c(-c2ccc(F)c(Cl)c2)c(=O)n(-c2cncc(C#N)c2)c1=O` [Compound I-404] are below 100 nM and below 10 nM.
In the same order, the values of `CCCNC(=O)c1c(-c2ccc(F)c(Cl)c2)c(=O)n(-c2cncc(Cl)c2)c(=O)n1CC#N` [Compound I-405] are 100 to 1000 nM and above 100 nM.
On the same counts, the results for `CC(C)NC(=O)c1c(-c2ccc(F)c(Cl)c2)c(=O)n(-c2cncc(Cl)c2)c(=O)n1CC#N` [Compound I-406] are 1000 to 5000 nM and above 100 nM.
Consider `N#CCn1c(CC2(O)CCC2)c(-c2ccc(F)c(Cl)c2)c(=O)n(-c2cncc(Cl)c2)c1=O` [Compound I-407], for which, in the assay on SARS-CoV-2, the EC50 was below 100 nM. Moreover, in assay [1], the IC50 fell in the range of 10 to 100 nM.
As for `N#CCn1c(N2CC(OC(F)(F)F)C2)c(-c2ccc(F)c(Cl)c2)c(=O)n(-c2cncc(OCF)n2)c1=O` [Compound I-408], the EC50 in the assay with SARS-CoV-2 was below 100 nM. In assay [1], the IC50 is below 10 nM.
On the same counts, the results for `N#CCn1c(N2CC(CO)C2)c(-c2ccc(F)c(Cl)c2)c(=O)n(-c2cncc(OCF)n2)c1=O` [Compound I-409] are below 100 nM and below 10 nM.
On the same counts, the results for `N#CCn1c(N2CC(F)(C3CC3)C2)c(-c2ccc(F)c(Cl)c2)c(=O)n(-c2cncc(OCF)n2)c1=O` [Compound I-410] are below 100 nM and below 10 nM.
On the same counts, the results for `N#CCn1c(N2CC(O)(C(F)F)C2)c(-c2ccc(F)c(Cl)c2)c(=O)n(-c2cncc(OCF)n2)c1=O` [Compound I-411] are below 100 nM and below 10 nM.
As to `N#CCn1c(N2CCC(C(F)F)CC2)c(-c2ccc(F)c(F)c2)c(=O)n(-c2cncc(C#N)c2)c1=O` [Compound I-412], in the assay on SARS-CoV-2, the EC50 is below 100 nM. In assay [1], the IC50 was below 10 nM.
On the same counts, the results for `N#CCn1c(N2CCC(C(F)F)CC2)c(-c2ccc(F)c(C(F)F)c2)c(=O)n(-c2cncc(C#N)c2)c1=O` [Compound I-413] are below 100 nM and below 10 nM.
Regarding `CC(C)(O)CCc1c(-c2ccc(F)c(Cl)c2)c(=O)n(-c2cncc(C#N)c2)c(=O)n1CC#N` [Compound I-414], in the assay on SARS-CoV-2, the EC50 is below 100 nM. In addition, in assay [1], the IC50 is below 10 nM.
Consider `N#CCn1c(N2CC(OC(F)F)C2)c(-c2ccc(F)c(C(F)F)c2)c(=O)n(-c2cncc(C#N)c2)c1=O` [Compound I-415], for which, in the assay on SARS-CoV-2, the EC50 was below 100 nM. Also, the IC50 in assay [1] was below 10 nM.
For the compound `N#CCn1c(N2CC(O)C2)c(-c2ccc(F)c(C(F)F)c2)c(=O)n(-c2cncc(C#N)c2)c1=O` [Compound I-416], the EC50 in the assay with SARS-CoV-2 was below 100 nM. Further, the IC50 in assay [1] is below 10 nM.
As for `N#CCn1c(N2CCC(F)(F)CC2)c(-c2ccc(F)c(C(F)F)c2)c(=O)n(-c2cncc(C#N)c2)c1=O` [Compound I-417], in the assay on SARS-CoV-2, the EC50 is below 100 nM. Moreover, the IC50 in assay [1] is below 10 nM.
Turning to `CCOC1CN(c2c(-c3ccc(F)c(Cl)c3)c(=O)n(-c3cncc(C(F)F)n3)c(=O)n2CC#N)C1` [Compound I-418], the EC50 in the assay on SARS-CoV-2 was below 100 nM. In assay [1], the IC50 is below 10 nM.
In the case of `N#CCn1c(N2CC(OC(F)F)C2)c(-c2ccc(F)c(Cl)c2)c(=O)n(-c2cncc(OCF)n2)c1=O` [Compound I-420], in the assay with SARS-CoV-2, the half-maximal effective concentration (EC50) is below 100 nM. In addition, the IC50 in assay [1] was below 10 nM.
On the same counts, the results for `N#CCn1c(N2CC(C(F)(F)F)C2)c(-c2ccc(F)c(Cl)c2)c(=O)n(-c2cncc(OCF)n2)c1=O` [Compound I-421] are below 100 nM and below 10 nM.
In the same order, the values of `N#CCn1c(N2CCC(C(F)F)CC2)c(-c2ccc(F)c(Cl)c2)c(=O)n(-c2cncc(OCF)n2)c1=O` [Compound I-422] are below 100 nM and below 10 nM.
On the same counts, the results for `N#CCn1c(CCC2(O)CCC2)c(-c2ccc(F)c(C(F)F)c2)c(=O)n(-c2cncc(C#N)c2)c1=O` [Compound I-424] are below 100 nM and below 10 nM.
Consider `N#CCn1c(CCC2(O)CCC2)c(-c2ccc(F)c(C(F)F)c2)c(=O)n(-c2cncc(Cl)c2)c1=O` [Compound I-425], for which, in the assay on SARS-CoV-2, the EC50 is below 100 nM. For the same compound, the IC50 in assay [1] is below 10 nM.
In the same order, the values of `N#CCn1c(N2CC3(C2)CC(F)(F)C3)c(-c2ccc(F)c(Cl)c2)c(=O)n(-c2cc(Cl)c[n+]([O-])c2)c1=O` [Compound I-426] are below 100 nM and below 10 nM.
On the same counts, the results for `COCc1c(-c2ccc(F)c(Cl)c2)c(=O)n(-c2cncc(Cl)c2)c(=O)n1CC#N` [Compound I-435] are below 100 nM and 10 to 100 nM.
In the same order, the values of `N#CCn1c(CCC2(O)CCC2)c(-c2ccc(F)c(F)c2)c(=O)n(-c2cncc(Cl)c2)c1=O` [Compound I-436] are below 100 nM and below 10 nM.
Turning to `N#CCn1c(N2CC(OC(F)F)C2)c(-c2ccc(F)c(Cl)c2)c(=O)n(-c2cncc(C#N)c2)c1=O` [Compound I-437], the EC50 in the assay with SARS-CoV-2 was below 100 nM. Also, in assay [1], the IC50 was below 10 nM.
Turning to `C#CCn1c(C)c(-c2ccc(F)c(Cl)c2)c(=O)n(-c2cncc(Cl)c2)c1=O` [Compound I-438], the EC50 in the assay on SARS-CoV-2 is below 100 nM. Besides, the IC50 in assay [1] was below 10 nM.
With `N#CCn1c(N2CC(O)(c3ncccn3)C2)c(-c2ccc(F)c(C(F)F)c2)c(=O)n(-c2cncc(C#N)c2)c1=O` [Compound I-439], in the assay with SARS-CoV-2, the EC50 is below 100 nM. In addition, the IC50 in assay [1] is below 10 nM.
On the same counts, the results for `C#CCn1c(CC(C)(C)F)c(-c2ccc(F)c(Cl)c2)c(=O)n(-c2cncc(Cl)c2)c1=O` [Compound I-440] are below 100 nM and below 10 nM.
In the same order, the values of `Cc1c(-c2ccc(F)c(Cl)c2)c(=O)n(-c2cncc(Cl)c2)c(=O)n1CC(N)=O` [Compound I-441] are below 100 nM and 10 to 100 nM.
For the compound `CC(=O)Cn1c(C)c(-c2ccc(F)c(Cl)c2)c(=O)n(-c2cncc(Cl)c2)c1=O` [Compound I-442], the EC50 in the assay with SARS-CoV-2 is below 100 nM. Moreover, the IC50 in assay [1] is 10 to 100 nM.
In the case of `Cc1c(-c2ccc(F)c(Cl)c2)c(=O)n(-c2cncc(Cl)c2)c(=O)n1CC(=O)CO` [Compound I-443], the EC50 with SARS-CoV-2 was in the range of 100 to 1000 nM. In addition, the IC50 in assay [1] was above 100 nM.
In the same order, the values of `CC(=O)OCC(=O)Cn1c(C)c(-c2ccc(F)c(Cl)c2)c(=O)n(-c2cncc(Cl)c2)c1=O` [Compound I-444] are 100 to 1000 nM and above 100 nM.
